Measurements: patent US20250195549A1, “NEW USE” (Kancera AB, priority 2023, published 2025)

Columns and labels:
[1] = test system: ST-elevation myocardial infarction (STEMI) patients undergoing percutaneous coronary intervention; assay: FRACTAL phase IIa clinical study: left ventricular thrombus and intramyocardial haemorrhage by CMR and/or echocardiogram on day 3; format: in vivo, human; conditions: treatment group vs placebo, day 3 of the treatment
Excerpt: (§1) The FRACTAL (FRACTalkine inhibition in Acute myocardial infarction) study was designed as a phase Iia, randomised, two-arm parallel-group, placebo-controlled, double-blind, multi-centre trial. The trial was primarily intended to assess the safety tolerability of intravenous and oral administration of (2R)-2-[(2-amino-5-{[(1S)-1-phenylethyl]thio}[1,3]thiazolo[4,5-d]pyrimidin-7-yl)amino]-4-methylpentan-1-ol (KAND567) (hydrochloride salt) (′investigational medicinal product (IMP)′; structure below)
in ST-elevation myocardial infarction (STEMI) patients undergoing percutaneous coronary intervention. For this, a cohort of 71 STEMI patients were admitted into two large tertiary centres in the United Kingdom. Secondary endpoints included investigating the anti-inflammatory and cardioprotective effects of the treatment. […]
(§2) The primary outcome of the study was safety, but a number of key secondary outcomes being assessed in parallel. Blood samples at nine different time points were used to assess any changes in the immune compartment as well as in inflammatory markers, and the cardioprotective effects of KAND567, as measured by gadolinium-contrast Cardiac Magnetic Resonance (CMR) (Cardiac MRI), were assessed as an additional secondary end point. […]

[2] = test system: ST-elevation myocardial infarction (STEMI) patients undergoing percutaneous coronary intervention; assay: FRACTAL clinical study: infarct size by late gadolinium-enhanced (LGE) MRI at day 90; format: in vivo, human; conditions: for Infarct size, GAD5-SD(%): LGE MRI at day 90, average, N in brackets
Description: Every patient received a baseline CMR scan on day 3 post myocardial infarction, followed by a subsequent scan after 3 months. Image analysis was performed by a
Additionally, the size of the myocardial infarction was assessed using late gadolinium-enhanced (LGE) magnetic resonance imaging (MRI) at day 90 to compare infarct size in patients administered the placebo or the IMP, using a thresholding of 5 standard deviations above the mean signal intensity from normal myocardium.
The average infarct size for patients with and without intramyocardial haemorrhage in the placebo and treatment groups is shown in the table below.

[3] = test system: ST-elevation myocardial infarction (STEMI) patients undergoing percutaneous coronary intervention; assay: FRACTAL clinical study: safety, tolerability and bleeding; format: in vivo, human
Excerpt: as §1
Following angiography and final confirmation of eligibility, patients were randomised to receive the intravenous (IV) bolus of either investigational medicinal product (IMP) or placebo. To avoid delivery of the IMP after reperfusion of the occluded vessel, percutaneous coronary intervention (PCI) was only commenced following the intravenous bolus of IMP/placebo. Patients then completed the remainder of their IMP infusion over 6 h. […]
as §2

[4] = FRACTAL clinical study: steady state concentration during IV infusion; format: in vivo, human; conditions: IV infusion over 6 hours, total dose 134 mg; in the blood
Description: The IMP and placebo (IMP 7.5 mg/mL solution (comprising 7.5 mg/mL IMP, Kleptose HP, sodium chloride and disodium phosphate in water for injection) added to 250 mL sodium chloride 0.9%, placebo solution as IMP solution but without active ingredient) were administered intravenously over a 6 hour period, at the rate summarised in the table below.
• Infusion of the initial bolus dose (approximately 10 mg of the active ingredient) was commenced at least 2 minutes before initiation of PCI. • Reperfusion of the occluded vessel was then initiated by advancing a coronary wire past the occluded or partially occluded site, followed by either balloon angioplasty, thrombectomy or stenting, according to routine clinical care. • IV infusion was then continued over 6 hours with an estimated steady state concentration of 1.5 µM (the rate of infusion was adjusted 3 hours after the start of the bolus dose, to achieve a steady concentration in the blood). The same IV solution was used throughout to give a total dose of 134 mg of the active ingredient over the 6-hour infusion time; placebo solution as IMP solution but without active ingredient). • If required, a bridging peroral dose of 0 to 4 capsules (50 mg capsules of IMP (white, size 1, hard capsules) or matching placebo) was administered depending on timing of presenting at the hospital. […]

[5] = test system: rat myocardial infarction model; conditions: rat model without antiplatelet or anticoagulant co-treatment; cited from earlier work

Question: For `CC(C)C[C@H](CO)Nc1nc(S[C@@H](C)c2ccccc2)nc2nc(N)sc12` [KAND567, (2R)-2-[(2-amino-5-{[(1S)-1-phenylethyl]thio}[1,3]thiazolo[4,5-d]pyrimidin-7-yl)amino]-4-methylpentan-1-ol], which “intramyocardial haemorrhage (in words)” value [1] is on record?
Answer: significant reduction

Question: And the “left ventricular thrombus (in words)” value [1]?
Answer: significant reduction

Question: What about the “infarct size compared to the placebo group (in words)” value ([2]; day 90, beyond the benefit of avoiding intramyocardial hemorrhage) of the same molecule?
Answer: further reduction

Question: What about the “Infarct size, GAD5-SD(%)” value ([2]; patients with intramyocardial hemorrhage, T-test vs placebo p = 0.81) of the same molecule?
Answer: 30.8 (11) %

Question: And the “Infarct size, GAD5-SD(%)” value ([2]; patients without intramyocardial hemorrhage, T-test vs placebo p = 0.15)?
Answer: 17.8 (16) %

Question: What about the safety and tolerability ([3]; intravenous and oral administration in STEMI patients) of the same molecule?
Answer: safe and well-tolerated

Question: And the incidence of bleeding ([3]; treatment group vs placebo)?
Answer: no increased incidence of bleeding

Question: What about the “estimated steady state concentration” value [4] of the same molecule?
Answer: 1.5 UM

Question: What about the infarct size [5] of the same molecule?
Answer: reduce

Question: And the inflammation [5]?
Answer: reduce

Question: And the intramyocardial haemorrhage [5]?
Answer: reduce
